From US20240140953A1, “INHIBITORS OF MENIN-MLL INTERACTION” (BIOMEA FUSION, INC., priority 2018, published 2024) come the findings set out here.

For one test, the system named is MV4-11 (MLL-AF4). In words: LTP assay, CellTiterGlo, T4-T14 (Example 103), MV4-11. Format: cell-based, human. The settings on record: for inhibition of cell viability (in words): MV4-11, LTP assay. The method, then:
(§1) The day of the experiment (T0) all the cell line suspensions were counted by Cell Viability Analyser, Vi-CELL and properly diluted with fresh medium to obtain the cell density reported in the Test System paragraph.
(§2) Cells were tested after 4 passages after thawing.
(§3) 200 μL/well and 150 μL/well of cell suspension were added into the 0.4 μL/well and 0.3 μL/well compound plates, respectively. • Cell plate containing 200 μL/well suspension was incubated at 37° C. in a humidified incubator with 5% CO2. • From each well of the 150 μL/well cell assay plate, 100 μL were harvested and transferred into a 96-well Optiplate (Perkin Elmer, Cat. n. 6005290) and cell viability was measured as described in 4.3 paragraphs (T0).
(§4) After four days in culture (T4) 150 μL/well of fresh medium were added into a new 0.3 μL/well copy compound plate. • From each well of the 200 μL/well cell assay plate: • 100 μL were sampled for the cell viability measurement as described in 4.3 paragraphs (T4). • 50 μL were harvested and added to the 150 μL/well compound plate prepared as described in the first point to dilute 1:4 the cell suspension. • The cell assay plate diluted and containing 200 μL/well suspension were incubated at 37° C. in a humidified incubator with 5% Co2.
(§5) At T7-T11-T14 it was proceeded as described in T4, with the exception that no further cell dilution was carried out at T14.
(§6) Plates containing the samples to be tested were equilibrated at room temperature for approximately 30 min and then 30 μL/well of the Promega CellTiterGlo® reagent were added.
(§7) Contents will be mixed for 5 min on an orbital shaker to induce cell lysis and then incubated at room temperature for an additional 10 min to stabilize the luminescent signal.
(§8) Luminescence was read by using VictorV (Perkin Elmer) multilabel plate reader using the standard protocol for luminescence in 96 well plate.
(§9) Data were expressed as % of inhibition compared to the 0.2% DMSO negative control, and was calculated as follows: […]
(§10) CRCs were analysed by GraphPad and IC50 values were calculated by non-linear regression using 4 parameter-logistic equation. IC50 (μM) values were reported in the final data table.
(§11) The curve fittings were performed leaving free all the parameters. Any constrain were reported in the results table.

The next test has as its system RS4-11 (MLL-AF4). Description: LTP assay, CellTiterGlo, T4-T14 (Example 103), RS4-11. Conditions: for inhibition of cell viability (in words): RS4;11, LTP assay. Format: cell-based. Here is the method: as §1, §2, §3, §4, §5, §6, §7, §8, §9, §10, §11
A further test relates to MOLM-13 (MLL-AF9). In words: Proliferation study, CellTiterGlo, 4 days (Example 102), MOLM-13. Conditions: MOLM-13, 4 days treatment; for pIC50 / IC50: Homo sapiens, 96 h, CellTiterGlo; for pIC50: read-out: MOLM-13 (MLL-AF9) IC50; for IC50: read-out: MOLM-13 (MLL-AF9) pIC50 (converted); for MOLM-13 (MLL-AF9) % max: maximal inhibition. The test is classed as cell-based, human.
From the text: The objective of the study was to evaluate the ability of representative compounds of the present invention, inhibitors of Menin/MLL interaction to inhibit cell proliferation. The proliferation inhibitory effect was investigated in two human MLL-leukemia cells selected on the bases of MLL fusion protein and listed in Table 102. HL-60 cell line was used as negative control.
ATP is present in all metabolically active cells and is considered as a marker for cell viability and proliferation. The metabolic cell activity was determined using the CellTiter-Glo kit from Promega, an ATP monitoring system based on the production of luminescence by the reaction of ATP with added UltraGlo® recombinant luciferase (Kawano et al., 2016), according to the supplier's experimental recommendations.
The described assay evaluates the ability of 4 representative compounds to inhibit the cell proliferation in the human MLL-leukemia cells plus a negative control cell line.
The assay provides potency values (IC50) for each test compound at a single time point Day 4 (T4).
Seven concentrations of the compounds (2.00E-05-6.67E-06-2.22E-06-7.41E-07-2.47E-07-8.23E-08-2.74E-08M), were assessed in duplicate in an individual test occasion in all the cell lines. MI-503 (Borkin et al., 2015) was used as reference compound and was tested at the same concentrations as the NCEs. 100% of proliferation is represented by the untreated cells (0.2% DMSO). The cell growth was monitored up to 4 days in culture.
MV4-11, MOLM-13 and HL-60 cells (see Table 2) were maintained in RPMI-1640 medium (Invitrogen, Cat. n. 618700, Batch n. 1965930) supplemented with 10% of Heat Inactivated FBS (Invitrogen, Cat n. 10500, Batch n. 08Q8078K) and 1% Pen-Strep (Invitrogen, Cat. N. 15140, Batch n. 1910859) and cultured at 37° C. in a humidified incubator with 5% CO2. All the cell lines grow in suspension and the cell density was maintained in a range of 2×10^5-1×10^6 viable cells/ml. Cells were pelleted at 130 g×5 min and conditioned medium was used to dilute the cell suspension.
Test items were dissolved in glass vials at 10 mM in DMSO with purity ≥99.9% (Sigma, D8418, batch n. SHBH4245V) and stored at −20° C. in 1.5 mL Eppendorf tubes.
Serial dilutions 1 to 3 in DMSO 100% were prepared starting from a 10 mM stock solutions to generate 7 points concentration response curve (CRC).
For each plate to test, one 0.4 μL copy plate and four 0.3 μL copy plates were then stamped into 96-well plates not treated for cell adhesion (Sarstedt—cat.no. 82.1581.001) by acoustic liquid Handling, Echo, at a concentration which was 500 fold the final assay concentration. Stamped plates were stored at −20° C. The final concentrations for the reference compound, MI-503, and the test items were: 2.00E-05, 6.67E-06, 2.22E-06, 7.41E-07, 2.47E-07, 8.23E-08 and 2.74E-08 M.
Cells were plated in 96-well flat bottom microtiter plates at cell density of 15,000 cells/ml for HL-60, 1000 cells/ml for MOLM-13 and 10,000 cell/ml for MV4-11. Cells were treated with 0.2% DMSO (Sigma, D8418, batch n. SHBH4245V) or serial dilutions of compounds (0.027 μM-20 μM) in DMSO (0.2% final concentration). Cells were incubated in a 5% CO2 incubator at 37° C. for 4 days. A CellTiterGlo viability assay (Promega) was employed. Luminescence was read by using VictorV (Perkin Elmer) multilabel plate reader using the standard protocol for luminescence in 96 well plate. The experiment was performed in duplicate.
as §9
CRCs were analysed by GraphPad and IC50 values were calculated by non-linear regression using 4 parameter-logistic equation. IC50 (μM) values were reported in the final data table. The curve fittings were performed leaving free all the parameters. Any constrain were reported in the results table.

[1] abbreviates: Homo sapiens, MV4-11, 96 h, MV4-11 (MLL-AF4), T4 (Day 4), read-out: IC50 T4 (Day 4).
Where [2] appears, read: Homo sapiens, MV4-11, MV4-11 (MLL-AF4), T7, read-out: IC50 T7.
Where [3] appears, read: Homo sapiens, MV4-11, MV4-11 (MLL-AF4), T11, read-out: IC50 T11.
Where [4] appears, read: Homo sapiens, MV4-11, MV4-11 (MLL-AF4), T14, read-out: IC50 T14.
Where [5] appears, read: Homo sapiens, RS4-11, 96 h, RS4-11 (MLL-AF4), T4 (Day 4), read-out: IC50 T4 (Day 4).
[6] abbreviates: Homo sapiens, RS4-11, RS4-11 (MLL-AF4), T7, read-out: IC50 T7.
Setting [7] is: Homo sapiens, RS4-11, RS4-11 (MLL-AF4), T11, read-out: IC50 T11.

pIC50: −log10 of the molar value. Where two headings read alike, the source gives them in different places.

Usually pIC50 stands for −log10 of the IC50, conventionally taken in molar units. As for `Cn1nc(-c2cccnc2)cc1CC(=O)Nc1ccc(-c2cc3c(N4CCOCC4)ncnc3[nH]2)cc1` [Compound 11, 2-[1-methyl-3-(pyridin-3-yl)-1H-pyrazol-5-yl]-N-{4-[4-(morpholin-4-yl)-7H-pyrrolo[2,3-d]pyrimidin-6-yl]phenyl}acetamide], the pIC50 was 6.19 with MV4-11 (MLL-AF4) (setting [1]); 6.30 in the test with MV4-11 (MLL-AF4) (setting [2]); 6.38 in the test with MV4-11 (MLL-AF4) (setting [3]); 6.51 in the test on MV4-11 (MLL-AF4) (setting [4]); 6.19 in the test with MV4-11 (MLL-AF4) (MV4-11 (MLL-AF4), T4 (Day 4), read-out: IC50 T4 (Day 4)); 6.30 in the test with MV4-11 (MLL-AF4) (MV4-11 (MLL-AF4), T7, read-out: IC50 T7). The pIC50 in the test with RS4-11 (MLL-AF4) (setting [5]) was 5.91; with RS4-11 (MLL-AF4) (setting [6]) it was 6.07; with RS4-11 (MLL-AF4) (setting [7]), 6.96; in the test on RS4-11 (MLL-AF4) (RS4-11 (MLL-AF4), T7, read-out: IC50 T7) it was 6.07; with MOLM-13 (MLL-AF9), 6.59. Also, the “inhibition of cell viability (in words)” value with MV4-11 (MLL-AF4) and in the test on RS4-11 (MLL-AF4) was “fully inhibited cell viability” each time. Besides, in the test on MOLM-13 (MLL-AF9), the IC50 was 257 nM. In addition, the “MOLM-13 (MLL-AF9) % max” value in the test on MOLM-13 (MLL-AF9) amounted to 95%.

As to `O=C(Cc1cc(-c2cccnc2)n[nH]1)Nc1ccc(-c2nc3c(N4CCOCC4)ncnc3[nH]2)cc1` [Compound 12, N-{4-[6-(morpholin-4-yl)-9H-purin-8-yl]phenyl}-2-[3-(pyridin-3-yl)-1H-pyrazol-5-yl]acetamide], the pIC50 is 5.81 with MV4-11 (MLL-AF4) (setting [1]); 5.90 with MV4-11 (MLL-AF4) (setting [2]); 6.07 in the test with MV4-11 (MLL-AF4) (setting [3]); 6.06 in the test on MV4-11 (MLL-AF4) (setting [4]); 6.24 in the test with RS4-11 (MLL-AF4) (setting [5]); 6.38 in the test with RS4-11 (MLL-AF4) (setting [6]). Also, the pIC50 is 6.59 in the test with RS4-11 (MLL-AF4) (setting [7]) and roughly 6.15 in the test on MOLM-13 (MLL-AF9). Moreover, the figures for the “inhibition of cell viability (in words)” value with MV4-11 (MLL-AF4), in the test with RS4-11 (MLL-AF4) and with MOLM-13 (MLL-AF9) (up to 20 μM) were “partial effect”, “fully inhibited the cell viability” and “slightly active”, respectively. For the same compound, in the test with MOLM-13 (MLL-AF9), the IC50 was roughly 708 nM.

Regarding `O=C(Nc1ccc(-c2cc3c(N4CCOCC4)ncnc3[nH]2)cc1)Nc1cc(-c2cccnc2)n[nH]1` [Compound 9, 1-{4-[4-(morpholin-4-yl)-7H-pyrrolo[2,3-d]pyrimidin-6-yl]phenyl}-3-[3-(pyridin-3-yl)-1H-pyrazol-5-yl]urea], in the test on MOLM-13 (MLL-AF9), the pIC50 is 6.49, the IC50 was 324 nM and the “MOLM-13 (MLL-AF9) % max” value was 94%.
